Laboratory results as given in patent publication US20200246308A1, “SYNERGISTIC COMBINATIONS OF UROLITHINS A AND B FOR IMPROVING COGNITIVE CAPACITY OR COGNITIVE FUNCTION” (Natreon, Inc., priority 2018, published 2020).
Entries after “also recorded” stand apart in the source; their conditions may differ.

What was measured:
[1] = test system: scopolamine induced dementia in rats; assay: Y-maze test, scopolamine induced dementia in rats (Study 2); type: in vivo, Charles Foster male albino rats; conditions: 50 mg dose orally once daily; for Coping behavior to novel environment (% time in novel arm), trial-2 / Curiosity behavior (total number of entries), trial-1 and trial-2: scopolamine treated rats; for % known and novel arm entries (spatial recognition memory): vs scopolamine treated rats
Procedure: 2.2. Animal subjects. Inbred Charles Foster male albino rats (130-180 g) were obtained from the Central Animal House, Institute of Medical Sciences (IMS), Banaras Hindu University (BHU), Varanasi, Uttar Pradesh, India. These were certified to be pathogen free and were randomly distributed into different experimental groups. The rats were kept in the departmental animal house at an ambient temperature of 25±1° C. and 45-55% RH, with a 12-h light/dark cycle (lights on 7:00-19:00 h). The animals had free access to standard pellet chow and tap water ad libitum. Experiments were conducted between 9:00 and 14:00 h. The behavioral testing was done during the light phase. Animals were housed in groups and acclimatized for at least one week before using them for experiments. Animals were transported in cage covered by dark cloth to the experimental room. The experimental procedures were in compliance with National Institutes of Health Guide for Care and Use of Laboratory Animals.
The rats were pretreated orally for seven days through an orogastric tube with experimental drugs (10, 25 and 50 mg/kg once daily) suspended in 0.3% carboxymethyl cellulose (CMC). The treatment was continued until the end of the experiment procedures (Singh, G. K., Garabadu, D., Muruganadam, A. V., Joshi, V. K., Krishnamurthy, S., “Antidepressant activity of Asparagus racemosus in animal models of depression,” Pharmacol. Biochem. Behav. (2009) 91(3):283-90). Scopolamine was dissolved in water for injection and administered on day 7 after one hour of drug treatment administration. Donepezil (5 mg/kg; i.p.)
was used as standard drug. On day 8 the behavioral experiment was performed. The animals were sacrificed and hippocampus was micro-dissected using the coordinates of the rat brain atlas. All control group animals were treated with the 0.3 ml of vehicle (0.3% CMC suspension) equal to the volume of experimental drugs (Ohj a, R., et al., “Asparagus recemosus enhances memory and protects against amnesia in rodent models,” Brain Cogn. (2010) October; 74(1): 1-9).
Spatial recognition memory, general exploratory behavior, and anxiety-like behavior were assessed by the Y-maze test. Y-maze consists of three similar arms of dimension 50 cm long, 16 cm wide and 32 cm high. In the first trial, the novel arm was blocked and the animal was allowed to move for 15 min in other two arms. In the second trial, the novel arm was opened and the animal was allowed to move for 5 min in all three arms after 4 h of the first trial. The total number of entries in all arms (for 5 min of trial-1 and trial-2) is indicative of general exploration attitude (curiosity). The % entries in known and novel arms for the 5 min period of trial 2 were considered as a measure of spatial recognition memory. Coping strategy to the novel environment was estimated by the percentage of the ratio of time spent in the novel arm to time spent in all arms and in the center of the apparatus during trial 2. The decrease in the coping behavior to the novel environment was considered as an increase in anxiety-like behavior (Krishnamurthy, S., et al., “Risperidone ameliorates post-traumatic stress disorder-like symptoms in modified stress re-stress model,” Neuropharmacology (2013) 75:62-77).

[2] = target: T1, acetylcholinesterase activity in HIP homogenate (Rattus norvegicus, UniProt P37136); assay: Acetylcholinesterase activity in hippocampal tissue, Amplex Red kit (Example 9C); type: in vivo, Male Wistar rats; conditions: p.o. 7 days: B 50, A 50, Donepezil 3, B:A 10:50 and 50:50 mg/kg, Shilajit 25 mg/kg b.i.d
T1 construct: The acetylcholinesterase activity in brain tissues was measured using Amplex red assay kit; from tissue; host or cells: rat hippocampus (brain tissue homogenate supernatant)
T1 sequence (P37136 32-614): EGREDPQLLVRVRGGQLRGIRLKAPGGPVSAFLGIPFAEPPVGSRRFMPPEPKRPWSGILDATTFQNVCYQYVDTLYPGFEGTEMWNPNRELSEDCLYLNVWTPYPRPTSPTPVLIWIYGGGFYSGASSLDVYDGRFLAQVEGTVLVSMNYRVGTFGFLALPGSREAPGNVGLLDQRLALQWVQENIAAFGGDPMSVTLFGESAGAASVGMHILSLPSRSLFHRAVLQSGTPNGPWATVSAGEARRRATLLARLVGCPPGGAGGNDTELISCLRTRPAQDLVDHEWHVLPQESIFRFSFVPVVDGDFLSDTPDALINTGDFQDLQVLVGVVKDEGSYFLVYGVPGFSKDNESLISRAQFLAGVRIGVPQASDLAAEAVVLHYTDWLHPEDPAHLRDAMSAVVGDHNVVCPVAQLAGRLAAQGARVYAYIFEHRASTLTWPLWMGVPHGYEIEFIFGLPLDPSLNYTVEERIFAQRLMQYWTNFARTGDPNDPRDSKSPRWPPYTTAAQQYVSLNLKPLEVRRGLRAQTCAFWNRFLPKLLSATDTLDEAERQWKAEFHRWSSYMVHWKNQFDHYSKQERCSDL
Procedure: Drug solution was freshly prepared in 0.3% CMC and administered by oral gavage once a day, for a period of 7 days. Briefly, the whole experiment was conducted for 8 days. Scopolamine (1 mg/kg), a muscarinic receptor antagonist, was dissolved in normal saline (0.9% NaCl) and administered intraperitoneally 1 h after drugs administration on seventh day.
Sample preparation: The animals were killed by decapitation and the brain tissues were dissected out in ice-cold conditions and stored at −80° C. until use. Tissue was homogenized in 1.0 ml of 0.1M perchloric acid with a Potter-Elvehjem homogenizer. The homogenate was kept in the polypropylene tubes for 15 min after which 40 μl of 4M potassium acetate was added to adjust the pH to 4.0 followed by centrifugation for 15 min at 4000×g. Supernatant was used to estimate acetylcholine and AChE activities.
Spectrofluorometric assay of acetylcholinesterase activity: The acetylcholinesterase activity in brain tissues was measured using Amplex red assay kit (Molecular Probes, Inc., USA). An acetylcholinesterase standard curve was used in each experiment. Briefly, Begin the reactions by adding 0.1 ml of control (10 μM H2O2) and tissue homogenate were taken in two separate polypropylene tubes and then 0.1 ml working solution of 400 μM Amplex Red reagent containing 2 U/mL HRP, 0.2 U/mL choline oxidase and 100 μM acetylcholine were added to each tube. After incubation for 45 min, the fluorescence was recorded with the help of spectrofluorometer at 530 nm excitation and 590 nm emission wavelengths.
Statistical analyses: The results were expressed as means±Standard Error mean (SEM). The intergroup variation was measured by one-way ANOVA followed by Student-Newman-Keuls test. […] Statistical analysis was done by using Graph Pad prism version 5 (San Diego, Calif.). A level of p<0.05 was accepted as statistically significant.

[3] = test system: cortical brain mitochondria; assay: Mitochondrial respiration and respiratory control ratio (RCR) of isolated brain cortex mitochondria after 21 days treatment; conditions: for Respiratory control ratio (RCR): old mice (18 to 20 month), 50 mg/kg p.o.; for Respiratory control ratio (RCR) / Mitochondrial respiration in all states: 21 days; for State II respiratory rate / Mitochondrial respiration in all states: 50 mg/kg; for Mitochondrial respiration in all states: young and old mice, vs respective normal control; for Respiratory rate at state V (complex I): FCCP
Procedure: Briefly the mitochondria were added to the chamber and respiratory states were evaluated by suitable substrates and inhibitors. Purified mitochondrial protein was suspended in respiration buffer in a final volume of 250 μL. State II respiration was initiated by addition of Pyruvate/Malate (P/M), with basal rate of respiration. […] State IV was measured by addition of oligomycin. The respiration returns to basal rate since the ATP synthase is shut down and no electrons are allowed to return to the matrix. The electron transport chain (ETC) continues only to maintain mitochondrial membrane potential due to loss of protons back into the matrix. State V was measured by addition of FCCP. This represents the maximum rate of respiration, causing uncoupling of the ETC to ATP synthesis, and allows protons to rush back into the matrix. Rotenone was then added to shut down complex I-driven respiration. State V (succinate) was determined by addition of succinate. This is the maximum rate of respiration via complex II, since FCCP is present in the system.

Row | Compound | Coping behavior to novel environment (% time in novel arm), trial-2 [1] | Curiosity behavior (total number of entries), trial-1 and trial-2 [1] | % known and novel arm entries (spatial recognition memory) [1] | Scopolamine-induced increase in acetylcholinesterase activity in HIP homogenate ([2]; listed as 3,8-(OH)2-DBP (A)) | Respiratory control ratio (RCR) ([3]; vs old control) | State II respiratory rate ([3]; old mice, vs old control) | Mitochondrial respiration in all states [3] | State II respiratory rate ([3]; young mice, vs young control) | Respiratory rate at state V (complex I) ([3]; young mice) | Scopolamine-induced increase in acetylcholinesterase activity in HIP homogenate [2]
1 | O=c1oc2cc(O)ccc2c2ccc(O)cc12 [Urolithin A, 3,8-dihydroxy-dibenzo-alpha-pyrone] | attenuated the scopolamine-induced decrease in coping strategy | attenuated the scopolamine induced decrease in curiosity behavior | dose dependently reversed the % known and novel arm entries | attenuated the scopolamine induced increase acetylcholinesterase activity; also recorded: less effective than 3-OH-DBP (B) 50 mg/kg | significantly increased the RCR | found to be increased | significantly increased mitochondrial respiration | significant increases in respiratory rate | significantly found to be increased | 
2 | O=c1oc2cc(O)ccc2c2ccccc12 [Urolithin B, 3-hydroxy-dibenzo-alpha-pyrone] | attenuated the scopolamine-induced decrease in coping strategy | attenuated the scopolamine induced decrease in curiosity behavior | dose dependently reversed the % known and novel arm entries |  | significantly increased the RCR | found to be increased | significantly increased mitochondrial respiration | significant increases in respiratory rate | significantly found to be increased; also recorded: less effect | attenuated the scopolamine induced increase acetylcholinesterase activity
